From PMC2849142 (Clinical and translational science, 2009)
pIC50: −log10 of the molar value. Like-named read-outs stand apart in the source and are kept apart here.

What was measured:
[1] = test system: Neonatal rat ventricular myocytes (NRVMs); assay: ATP content of cultured cardiomyocytes; format: cell-based
[2] = test system: AMPK; assay: AICAR-induced activation of AMPK in NRVMs; format: cell-based, rat; conditions: for activity of AMPK following AICAR, as determined by ACC phosphorylation: NRVMs pre-treated 4h, then AICAR 1 mM 1h
[3] = test system: Neonatal rat ventricular myocytes (NRVMs); assay: TUNEL staining of cultured cardiomyocytes; format: cell-based
[4] = test system: NRVMs; assay: Rescue of sunitinib injury in NRVMs by AMPK activators; conditions: cells pre-treated with AICAR, then exposed to sunitinib
[5] = target: CAMKK1 (Homo sapiens, UniProt Q8N5S9); assay: Recombinant biochemical kinase assay, sunitinib vs CAMKK1
CAMKK1, sequence (Q8N5S9 whole entry): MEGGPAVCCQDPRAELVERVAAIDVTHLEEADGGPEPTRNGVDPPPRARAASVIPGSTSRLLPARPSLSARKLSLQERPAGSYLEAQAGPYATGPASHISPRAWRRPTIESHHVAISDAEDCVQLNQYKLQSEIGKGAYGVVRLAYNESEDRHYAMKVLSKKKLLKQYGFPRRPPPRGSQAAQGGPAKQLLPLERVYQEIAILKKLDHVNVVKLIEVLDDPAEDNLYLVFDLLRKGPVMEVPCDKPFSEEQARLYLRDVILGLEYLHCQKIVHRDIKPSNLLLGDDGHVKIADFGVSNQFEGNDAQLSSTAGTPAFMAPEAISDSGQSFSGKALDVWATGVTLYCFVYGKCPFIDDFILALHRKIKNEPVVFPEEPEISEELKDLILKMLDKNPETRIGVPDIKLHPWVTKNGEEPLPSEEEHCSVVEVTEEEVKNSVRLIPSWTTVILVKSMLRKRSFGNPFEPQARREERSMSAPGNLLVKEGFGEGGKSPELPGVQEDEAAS

[6] = test system: C57Bl/6 mice; assay: Echocardiographic indices of sunitinib-treated mice; format: in vivo, mouse; conditions: 25 mg/kg/d in chow, 5 weeks, mean ± SD
[7] = test system: C57Bl/6 mice; assay: Cardiomyocyte cross-sectional area on H&E-stained heart sections of treated mice; format: in vivo, mouse; conditions: 25 mg/kg/d, 5 weeks, p < 0.01 vs. vehicle, n = 4
[8] = test system: C57Bl/6 mice; assay: Myocardial capillary density; format: in vivo, mouse; conditions: 25 mg/kg/d, 5 weeks, isolectin B4, n = 3
[9] = test system: AMPK; assay: Phospho-ACC immunoblot of heart lysates of treated mice; format: in vivo, mouse; conditions: 25 mg/kg/d, 5 wks, p < 0.05 vs. control, n = 4 hearts
[10] = test system: Neonatal rat ventricular myocytes (NRVMs); assay: Mitochondrial membrane potential; format: cell-based; conditions: 1 μM sunitinib, 12h
[11] = test system: AMPK; assay: Phospho-AMPK; format: cell-based, rat; conditions: NRVMs, sunitinib 1 μM; p < 0.01 vs. control, n = 4
[12] = test system: AMPK; assay: Phospho-ACC immunoblot in NRVMs; format: cell-based, rat; conditions: sunitinib 1 μM, p < 0.01, n = 4
[13] = test system: mTORC1; assay: Phospho-eEF2 immunoblot in NRVMs; format: cell-based, rat; conditions: sunitinib 1 μM, p < 0.01, n = 4
[14] = test system: RET; conditions: read-out: IC50 vs RET; known sunitinib target; cited from earlier work
[15] = test system: patients; conditions: cited from earlier work
[16] = test system: mitochondria; conditions: cited from earlier work
[17] = ref http://www.pfizer.com/files/products/uspi_sutent.pdf; cited from earlier work
[18] = test system: NRVMs; conditions: cited from earlier work

In the case of `c1cc(-c2cnn3cc(-c4ccc(OCCN5CCCCC5)cc4)cnc23)ccn1` [Compound C], the “[ATP] in cardiomyocytes” value [1] was “reduction in [ATP]”, the “activity of AMPK following AICAR, as determined by ACC phosphorylation” value [2] was “Inhibition” and the “cardiomyocyte apoptosis (TUNEL)” value [3] was “induced apoptosis”.

In the case of `NC(=O)c1ncn([C@@H]2O[C@H](CO)[C@@H](O)[C@H]2O)c1N` [AICAR], the “AMPK signaling (phospho-ACC) in the setting of sunitinib” value ([2]; AICAR 1 mM 1h after sunitinib pre-treatment 4h) was “failed to increase AMPK signaling” and the “rescue of sunitinib toxicity by pre-treatment with the AMPK activator” value [4] was “failed to rescue”.

With `CCN(CC)CCNC(=O)c1c(C)[nH]c(/C=C2\C(=O)Nc3ccc(F)cc32)c1C` [sunitinib] the pIC50 ([5]; IC50 vs CAMKK1 (range)) was 5.22 to 5.35, the pIC50 ([5]; Mean IC50, recombinant biochemical kinase assays, two to seven sets of assays) was 5.28 and the “EF (ejection fraction)” value [6] was 52.5 ± 6.85%. For the same compound, the “FS (fractional shortening)” value [6] was 31.3 ± 5.07%, the “LVEDD (left ventricular end-diastolic dimension)” value [6] was 3.51 ± 0.18 mm and the “LVPW (left ventricular posterior wall thickness)” value [6] was 0.86 ± 0.06 mm. For the same compound, the “LVW/BW (left ventricular mass normalized to body weight)” value [6] was 4.49 ± 0.28 mg/g, the “LVESD (left ventricular end-systolic dimension)” value ([6]; P < 0.05 versus vehicle) was 2.41 ± 0.27 mm and the “cardiomyocyte size (cross-sectional area) on H & E-stained heart sections” value [7] was “cardiomyocyte hypertrophy”. For the same compound, the myocardial capillary density [8] was “does not alter”, the “phosphorylation of ACC2 in the heart in vivo” value [9] was “significantly reduced” and the “mitochondrial membrane potential (Δψm)” value [10] was “loss of Δψm”. For the same compound, the “[ATP] in cardiomyocytes” value ([1]; 8h treatment, p < 0.05 vs. control) was “significantly reduced”, the “phosphorylation of AMPK at the activating site (T172)” value [11] was “modest but consistent increase” and the “phosphorylation of ACC1/2” value [12] was “significantly reduced”. For the same compound, the “activity of AMPK following AICAR, as determined by ACC phosphorylation” value [2] was “significantly reduced”, the “phosphorylation of eEF2” value [13] was “marked increase” and the “cardiomyocyte apoptosis (TUNEL)” value ([3]; 28 hrs treatment, p < 0.05 vs. control) was “induce cardiomyocyte apoptosis”. The pIC50 [14] was […], the “patients developing congestive heart failure (CHF)” value [15] was 8–15% and the “direct toxicity to mitochondria” value [16] was “not directly toxic to mitochondria”. For the same compound, the volume of distribution [17] was 2230 L.

For `CN(C)C(=N)N=C(N)N` [metformin], the “reduction of sunitinib injury in NRVMs” value [18] is given as “failed to reduce sunitinib injury”.
